Values belong to the compound of their own block, whether it stands above or below them.
Biological target: T1, Avi-tagged FL MALT-1 (Homo sapiens, UniProt Q9UDY8)
T1 construct: Avi-tagged FL MALT-1 (Pharmaron, stored at −70° C.); Avi-tag; purchased Pharmaron
T1 sequence (Q9UDY8 1-824): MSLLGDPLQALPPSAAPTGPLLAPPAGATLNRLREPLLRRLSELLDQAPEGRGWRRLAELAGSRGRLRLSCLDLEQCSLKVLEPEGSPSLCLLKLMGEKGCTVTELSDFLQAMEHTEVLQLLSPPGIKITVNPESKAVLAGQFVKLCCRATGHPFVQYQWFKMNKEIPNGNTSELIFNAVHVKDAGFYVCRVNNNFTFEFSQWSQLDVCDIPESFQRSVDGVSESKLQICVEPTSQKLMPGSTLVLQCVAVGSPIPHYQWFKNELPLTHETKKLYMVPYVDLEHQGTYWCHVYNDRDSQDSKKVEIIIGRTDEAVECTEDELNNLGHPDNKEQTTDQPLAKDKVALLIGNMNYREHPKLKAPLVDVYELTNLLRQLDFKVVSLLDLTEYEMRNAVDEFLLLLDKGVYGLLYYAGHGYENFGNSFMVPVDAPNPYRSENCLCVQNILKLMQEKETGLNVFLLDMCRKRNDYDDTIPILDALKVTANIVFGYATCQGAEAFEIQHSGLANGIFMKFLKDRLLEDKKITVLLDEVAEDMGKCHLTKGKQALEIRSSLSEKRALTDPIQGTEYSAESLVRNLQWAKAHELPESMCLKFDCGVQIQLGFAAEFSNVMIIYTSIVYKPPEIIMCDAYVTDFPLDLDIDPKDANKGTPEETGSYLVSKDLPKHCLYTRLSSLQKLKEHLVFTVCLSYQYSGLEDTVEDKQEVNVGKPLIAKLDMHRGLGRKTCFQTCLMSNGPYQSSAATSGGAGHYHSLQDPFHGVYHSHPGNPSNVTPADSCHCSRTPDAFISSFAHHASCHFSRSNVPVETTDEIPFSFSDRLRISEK
Test: MALT-1 Fluorogenic Peptide Cleavage Assay (MALT1 inhibition assay)
Type: biochemical
Conditions: Ac-LRSR-AMC peptide substrate; 30 min pre-incubation, 90 min reaction at room temperature; fluorescence
Description: Inhibition of MALT1 activity by a small molecule was evaluated using MALT-1 Fluorogenic Peptide Cleavage Assay. The assay utilizes a quenched AMC-labelled peptide that contains the MALT-1 recognition sequence and cleavage site (LRSR). MALT-1 mediated cleavage of the peptide relieves the quenching and leads to an increase in fluorescence at excitation (342 nm) and emission (441 nm).
The following reagents were obtained commercially and used to prepare standard reagent formulations as further described below: N-2-hydroxyethylpiperazine-N-2-ethane sulfonic acid (HEPES) (1 M, pH 7.5, stored at 4° C.), sodium citrate (stored at RT), tris(2-carboxyethyl)phosphine hydrochloride (T-CEP) (500 mM, stored at −20° C.), ethylenediaminetetraacetic acid (EDTA) (500 mM, stored at RT), dimethylsulfoxide (DMSO, stored at RT), 3-[(3-cholamidopropyl)dimethylammonio]-1-propane sulphate (CHAPS) (stored at RT), dimethylsulfoxide (DMSO), DMSO (Fisher Scientific, stored at RT), Avi-tagged FL MALT-1 (Pharmaron, stored at −70° C.), Ac-LRSR-AMC Peptide (SM Biochemicals, stored at −20° C.), and ultrapure water (MILLI-Q®).
The standard reagent formulations used in this assay were prepared and stored as follows. A 1.1 M solution of sodium citrate (161.3 g, 500 mL) was prepared and stored at room temperature. A 10% (w/v) CHAPS solution (2.0 g, 20 mL) was prepared and stored at 4° C. A 500 mM HEPES solution having pH of 6.89 was prepared from 200 mL of a 1 M HEPES solution having a pH of 7.5 using concentrated hydrochloric acid and brought to a final volume of 400 mL with MILLI-Q© H2O. The substrate, 10 mM Ac-LRSR-AMC Peptide, was prepared (10 mg, 1.370 mL DMSO) and stored at −20° C.
Compounds were plated to provide a 2% DMSO final concentration using a ProxiPlate-384 Plus F Black 384-shallow well microplate. The assay-ready plates were equilibrated to room temperature. A reaction buffer (30 mL total volume) was prepared by combining HEPES (pH 6.89, 25 mM, 1.5 mL), sodium citrate (660 mM, 18.0 mL), T-CEP (1 mM, 0.06 mL), EDTA (0.1 mM, 0.06 mL), CHAPS (0.05%, 0.15 mL), DMSO (2%, 0.6 mL), and MILLI-Q® H2O (10.23 mL; 9.63 mL when backfilled to 2% DMSO) followed by thorough mixing.
MALT-1 was thawed and kept on ice. Peptide substrate was thawed on the bench under ambient conditions. A MALT-1 enzyme working stock was prepared from Avi-tagged FL MALT-1 (40 nM in a prepared reagent volume of […]) and the reaction buffer (13.0 mL). MALT1 working stock (5 μL) was added to each well of the microplate. MALT-1 was pre-incubated with compounds for 30 minutes at room temperature.
Two substrate working stocks (Km and 10×Km) were prepared. The 1×Km substrate was prepared from Ac-LRSR-AMC Peptide (50 μM in a prepared reagent volume of […]) and the reaction buffer (6.965 mL). The 10×Km substrate was prepared from Ac-LRSR-AMC Peptide ([…] in a prepared reagent volume of 196.0 μL) and the reaction buffer (6.804 mL). The reaction was initiated by the addition of substrate working stock (5 μL, 50 μM) to Km plates and the addition of substrate working stock (5 μL 280 μM) to 10×Km plates. The plates were covered and incubated on the bench at room temperature for 90 minutes.
Fluorescence intensity was determined using a CLARIOstar microplate reader (BMG LABTECH) using the optimised AMC mode. Before taking readings, a 70% gain was applied on the neutral control well. Compound data were normalised to % Inhibition and used to plot sigmoidal concentration response curves to yield various parameters including IC50.

Compound: O=C(Nc1cnc(-n2nccn2)c(Cl)c1)c1cc(-c2ccccc2)ns1 [I-2, N-(5-CHLORO-6-(2H-1,2,3-TRIAZOL-2-YL)PYRIDIN-3-YL)-3-PHENYLISOTHIAZOLE-5-CARBOXAMIDE]
IC50: 1 to 2.5 µM

Compound: N#Cc1cc(NC(=O)c2snc(-c3ccccc3)c2C(F)(F)F)cnc1-n1nccn1 [I-8, N-(5-CYANO-6-(2H-1,2,3-TRIAZOL-2-YL)PYRIDIN-3-YL)-3-PHENYL-4-(TRIFLUOROMETHYL)ISOTHIAZOLE-5-CARBOXAMIDE]
IC50: ≤ 0.4 µM

Compound: O=C(Nc1ccnc(C(F)(F)F)c1)c1snc(-c2ccccc2)c1C(F)(F)F [I-15, 3-PHENYL-4-(TRIFLUOROMETHYL)-N-(2-(TRIFLUOROMETHYL)PYRIDIN-4-YL)ISOTHIAZOLE-5-CARBOXAMIDE]
IC50: ≤ 0.4 µM

Compound: O=C(Nc1ccc(C(=O)N2CC(O)C2)c(Cl)c1)c1snc(-c2ccccc2)c1C(F)(F)F [I-16, N-(3-CHLORO-4-(3-HYDROXYAZETIDINE-1-CARBONYL)PHENYL)-3-PHENYL-4-(TRIFLUOROMETHYL)ISOTHIAZOLE-5-CARBOXAMIDE]
IC50: ≤ 0.4 µM

Compound: O=C(Nc1ccc(C(=O)N2CC(O)C2)c(Cl)c1)c1snc(-c2ccccc2)c1C1CC1 [I-17, N-(3-CHLORO-4-(3-HYDROXYAZETIDINE-1-CARBONYL)PHENYL)-3-PHENYL-4—(CYCLOPROPYL)ISOTHIAZOLE-5-CARBOXAMIDE]
IC50: ≤ 0.4 µM

Compound: CN(C(=O)c1snc(-c2ccccc2)c1C(F)(F)F)c1cnc(-n2nccn2)c(Cl)c1 [I-18, N-(5-CHLORO-6-(2H-1,2,3-TRIAZOL-2-YL) PYRIDIN-3-YL)-N-METHYL-3-PHENYL-4-(TRIFLUOROMETHYL)ISOTHIAZOLE-5-CARBOXAMIDE]
IC50: ≤ 0.4 µM

Compound: O=C(Nc1cnc(-n2nccn2)c(Cl)c1)c1snc(-c2ncccc2Cl)c1C(F)(F)F [I-19, N-(5-CHLORO-6-(2H-1,2,3-TRIAZOL-2-YL) PYRIDIN-3-YL)-3-(3-CHLOROPYRIDIN-2-YL)-4-(TRIFLUOROMETHYL) ISOTHIAZOLE-5-CARBOXAMIDE]
IC50: ≤ 0.4 µM

Compound: N#Cc1cc(NC(=O)c2snc(-c3ncccc3Cl)c2C(F)(F)F)cnc1-n1nccn1 [I-20, 3-(3-CHLOROPYRIDIN-2-YL)-N-(5-CYANO-6-(2H-1,2,3-TRIAZOL-2-YL)PYRIDIN-3-YL)-4-(TRIFLUOROMETHYL)ISOTHIAZOLE-5-CARBOXAMIDE]
IC50: ≤ 0.4 µM

Compound: CN(C)C(=O)c1ccc(NC(=O)c2snc(-c3ccccc3)c2C2CC2)cc1Cl [I-21, N-(3-CHLORO-4-(DIMETHYLCARBAMOYL) PHENYL)-4-CYCLOPROPYL-3-PHENYLISOTHIAZOLE-5-CARBOXAMIDE]
IC50: ≤ 0.4 µM

Compound: O=C(Nc1ccc(C(=O)N2CCOCC2)c(Cl)c1)c1snc(-c2ccccc2)c1C1CC1 [I-22, N-(3-CHLORO-4-(MORPHOLINE-4-CARBONYL) PHENYL)-4-CYCLOPROPYL-3-PHENYLISOTHIAZOLE-5-CARBOXAMIDE]
IC50: ≤ 0.4 µM

Compound: CNC(=O)c1ccc(NC(=O)c2snc(-c3ccccc3)c2C2CC2)cc1Cl [I-23, N-(3-CHLORO-4-(METHYLCARBAMOYL) PHENYL)-4-CYCLOPROPYL-3-PHENYLISOTHIAZOLE-5-CARBOXAMIDE]
IC50: ≤ 0.4 µM

The next lines start with the values.

IC50: ≤ 0.4 µM
Compound: O=C(Nc1cnc(-n2nccn2)c(Cl)c1)c1snc(-c2ccccc2)c1I [I-1, N-(5-CHLORO-6-(2H-1,2,3-TRIAZOL-2-YL)PYRIDIN-3-YL)-4-IODO-3-PHENYLISOTHIAZOLE-5-CARBOXAMIDE]

IC50: ≤ 0.4 µM
Compound: Cc1c(-c2ccccc2)nsc1C(=O)Nc1cnc(-n2nccn2)c(Cl)c1 [I-3, N-(5-CHLORO-6-(2H-1,2,3-TRIAZOL-2-YL)PYRIDIN-3-YL)-4-METHYL-3-PHENYLISOTHIAZOLE-5-CARBOXAMIDE]

IC50: 0.4 to 1 µM
Compound: N#Cc1c(-c2ccccc2)nsc1C(=O)Nc1cnc(-n2nccn2)c(Cl)c1 [I-4, N-(5-CHLORO-6-(2H-1,2,3-TRIAZOL-2-YL)PYRIDIN-3-YL)-4-CYANO-3-PHENYLISOTHIAZOLE-5-CARBOXAMIDE]

IC50: ≤ 0.4 µM
Compound: CC(C)c1c(-c2ccccc2)nsc1C(=O)Nc1cnc(-n2nccn2)c(Cl)c1 [I-5, N-(5-CHLORO-6-(2H-1,2,3-TRIAZOL-2-YL) PYRIDIN-3-YL)-4-ISOPROPYL-3-PHENYLISOTHIAZOLE-5-CARBOXAMIDE]

IC50: ≤ 0.4 µM
Compound: O=C(Nc1cnc(-n2nccn2)c(Cl)c1)c1snc(-c2ccccc2)c1C1CC1 [I-6, N-(5-CHLORO-6-(2H-1,2,3-TRIAZOL-2-YL) PYRIDIN-3-YL)-4-CYCLOPROPYL-3-PHENYLISOTHIAZOLE-5-CARBOXAMIDE]

IC50: ≤ 0.4 µM
Compound: O=C(Nc1cnc(-n2nccn2)c(Cl)c1)c1snc(-c2ccccc2)c1C(F)(F)F [I-7, N-(5-CHLORO-6-(2H-1,2,3-TRIAZOL-2-YL) PYRIDIN-3-YL)-3-PHENYL-4-(TRIFLUOROMETHYL)ISOTHIAZOLE-5-CARBOXAMIDE]

IC50: ≤ 0.4 µM
Compound: N#Cc1cc(NC(=O)c2snc(-c3ccccc3)c2C2CC2)cnc1-n1nccn1 [I-9, N-(5-CYANO-6-(2H-1,2,3-TRIAZOL-2-YL) PYRIDIN-3-YL)-4-CYCLOPROPYL-3-PHENYLISOTHIAZOLE-5-CARBOXAMIDE]

IC50: ≤ 0.4 µM
Compound: C=Cc1c(-c2ccccc2)nsc1C(=O)Nc1cnc(-n2nccn2)c(Cl)c1 [I-10, N-(5-CHLORO-6-(2H-1,2,3-TRIAZOL-2-YL) PYRIDIN-3-YL)-4-VINYL-3-PHENYLISOTHIAZOLE-5-CARBOXAMIDE]

IC50: ≤ 0.4 µM
Compound: CCc1c(-c2ccccc2)nsc1C(=O)Nc1cnc(-n2nccn2)c(Cl)c1 [I-11, N-(5-CHLORO-6-(2H-1,2,3-TRIAZOL-2-YL) PYRIDIN-3-YL)-4-ETHYL-3-PHENYLISOTHIAZOLE-5-CARBOXAMIDE]

IC50: ≤ 0.4 µM
Compound: Cc1cc(NC(=O)c2snc(-c3ccccc3)c2C2CC2)cnc1-n1nccn1 [I-12, 4-CYCLOPROPYL-N-(5-METHYL-6-(2H-1,2,3-TRIAZOL-2-YL)PYRIDIN-3-YL)-3-PHENYLISOTHIAZOLE-5-CARBOXAMIDE]

IC50: ≤ 0.4 µM
Compound: O=C(Nc1cnc(-n2nccn2)c(C(F)F)c1)c1snc(-c2ccccc2)c1C1CC1 [I-13, 4-CYCLOPROPYL-N-(5-(DIFLUOROMETHYL)-6-(2H-1,2,3-TRIAZOL-2-YL)PYRIDIN-3-YL)-3-PHENYLISOTHIAZOLE-5-CARBOXAMIDE]

IC50: ≤ 0.4 µM
Compound: O=C(Nc1cnc(-n2nccn2)c(C(F)(F)F)c1)c1snc(-c2ccccc2)c1C1CC1 [I-14, 4-CYCLOPROPYL-N-(5-(TRIFLUOROMETHYL)-6-(2H-1,2,3-TRIAZOL-2-YL)PYRIDIN-3-YL)-3-PHENYLISOTHIAZOLE-5-CARBOXAMIDE]

Reference: patent publication US20260124222A1, “ISOTHIAZOLYLCARBOXAMIDE COMPOUNDS AND THEIR USE IN THERAPY” (HOTSPOT THERAPEUTICS, INC., priority 2022, published 2026)
